The source of these data is patent US20240254119A1 (THIRD HARMONIC BIO, INC., priority 2022, published 2024).

The target of data set [1] is T1, CSF-1R (Homo sapiens, UniProt P07333).
T1 construct: purchased Invitrogen PV3249 (lot 662393N)
Briefly: Caliper biochemical assay, CSF-1R. To be noted: Table 6. Summed up: (§1)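 Kinase, FAM-labelled peptide substrate, ATP and Mn^2+ incubated with compound for 3 h at 25° C, then quenched with EDTA buffer. Substrate and phosphorylated product separated by microfluidic electrophoresis and quantified by fluorescence intensity; no-enzyme wells define 100% inhibition.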

Data set [2] has as its target T2, wtKIT (Homo sapiens, UniProt P10721).
T2 construct: 1888289AM in the reaction mixtures
Nature of the data set: Caliper biochemical assay, wtKIT. To be noted: Table 6, read-out: KIT Biochemical IC50 avg. Summed up: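 Enzyme (5.0 nM wtKIT), 1 μM FAM-labelled peptide, 400 μM ATP and 10 mM MnCl2 in HEPES pH 7.5 with 1% DMSO, incubated 3 h at 25° C. EDTA quench; substrate and phosphoproduct separated by microfluidic electrophoresis and quantified by fluorescence.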

Data set [3] can be described thus: Kinetic solubility assay. To be noted: kinetic solubility, 50 mM PB (pH 7.4), shaken 24 hours at RT. The class given is physicochemical. In short, it runs like this:
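Test compounds from 10 mM DMSO stock were diluted in 50 mM phosphate buffer, pH 7.4, and shaken for 24 h at RT. After PTFE filtration and centrifugation, filtrate concentration was quantified by UPLC-UV/HPLC-UV against a standard curve.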

Data set [4] concerns KIT phosphorylation in M-07e cells. Briefly: Cell-based KIT phosphorylation in M-07e cells by pKIT ELISA. More on the design: species or system human. Particulars: SCF stimulation. Here is the method: Exemplary compounds were tested for ability to inhibit KIT phosphorylation using M-07e cells as monitored by pKIT ELISA. M-07e cells are also represented as M-07E, M-07e, M07-e, M07e, Mo7e, MO7e, M07E and MO7E. Assay procedures and results are described below.
Part I—Procedures for Determining KIT Inhibition inM-07e Cells Using pKTT ELISA Reagents and consumables: • M-07e cells: Initially obtained from Accegen, cat #ABC-TC1313 • p-cKIT Capture ELISA antibody: anti-Human Phospho-CD117/c-kit, R&D cat #DYC3527-5 • Anti-pY-HIRP antibody: R&D cat #DYC3527-5 • 25× wash buffer: Quantikine ELISA Wash Buffer 1, R&D cat #WA126 • PBS: R&D cat #DY006 • 96 well ELISA plates: Clear Polystyrene Microplates, R&D Cat #DY990 • 96 well Tissue culture plates: Corning® 96 Well TC-Treated Microplates, cat #CLS3894 • RPMI medium: ATCC® RPMI-1640 Medium, Cat #30-2001 • FBS: Fetal Bovine Serum, certified, United States Gibco, Thermo-Fisher 16000044 • GM-CSF: Recombinant Human GM-CSF Protein, R&D cat #215-GM • SCF: Recombinant Human SCF Protein, R&D cat #255-SC
• 1. Prepare cells: • a. Culture M-07e cells in RPMI medium+20% serum+GM-CSF+penstrep • To make 50 mL of growth medium • i. 40 mL RPMI media • ii. 10 mL FBS • iii. 10 uL of GM-CSF (100 ug/mL stock) • iv. 0.5 mL pen strep (100×) • b. Harvest cells • c. Re-suspend cells in 100% RPMI media (without serum) to final concentration of 1 million cells/mL • d. Transfer 100 uL of cell solution to 11 columns of a 96 well flat bottom cell culture plate • e. Incubate cells over night at 37 C • 2. Prepare ELISA Plates: • a. Dilute capture antibody to concentration 4 ug/mL in PBS • b. Coat 96 well microplates with 100 uL of capture antibody • c. Seal plates and incubate at RT overnight • d. Wash plates with 300 uL of wash buffer • e. Repeat wash • f. Treat plates with 300 uL of blocking buffer at RT for 1 hour • 3. Addition of compounds: • a. Prepare compound dilutions in RPMI media • i. Top test concentration is 1 uM • ii. Serially dilute compounds 3× for a total of 8 concentrations • b. Add 10 uL of 10× compound dilutions to cells • i. No compounds added in column 11 (for controls) • c. Incubate cells with compounds for 2 hours at 37 C • d. Stimulate cells with SCF for 5 min at concentration of 100 ng/mL (final) • i. In column 11 stimulate top 4 wells. Leave bottom 4 wells unstimulated • e. Remove cell culture media with multichannel pipet • f. Add 110 uL of Lysis buffer to all wells • g. Incubate plates at RT for 30 min while shaking • 4. Transfer 100 uL of cell lysis to each prepared Elisa plate • 5. Add 100 uL of the standard pc-KIT dilutions to the standard wells in column 12 • a. Top concentration=2000 pg/mL • b. 2× dilutions • 6. Incubate ELISA plate with cell lysate for 2 hours at RT • 7. Wash Plate with wash buffer (wash 1) • 8. Repeat wash (wash 2) • 9. […] Add 100 uL of diluted anti-pY-HRP (1/1000 dilution in detection antibody dilution buffer) and incubate 2 hours at RT • 11. Wash plate with wash buffer (wash 1) • 12. Repeat wash (wash 2) • 13. Repeat wash (wash 3) • 14. Add 100 uL of substrate solution to each well • 15. Incubate plates 20 min • Note: Plate development is indicated by aqua color • 16. Add 50 uL of stop solution to each well • 17. Determine optical density on Bitek Synergy Neo2: • a. Make new experiment
Select absorbance 1 set to 450 nm

Data set [5] concerns the target T3, PDGFRα (Homo sapiens, UniProt P16234).
T3 construct: purchased Millipore 14-467 (lot 26321_ACTI)
Nature of the data set: Caliper biochemical assay, PDGFRα. Particulars: Table 6. Summed up:
as §1

Data set [6] has as its target T2, wtKIT. Briefly: HTRF biochemical assay, wtKIT (phosphorylation of a peptide substrate). Particulars: Table 4. In short, it runs like this:
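wtKIT (5.0 nM) phosphorylating 1 µM FAM-labelled peptide with 400 µM ATP and 10 mM MnCl2 in 100 mM HEPES pH 7.5, 1% DMSO, 3 h at 25 °C. EDTA quench; phosphopeptide detected with anti-phosphotyrosine antibody by HTRF. Enzyme titrated for 10-20% substrate conversion.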
(In general: Time-resolved FRET reads energy transfer from a long-lived donor to a nearby acceptor.)

The target in data set [7] is T4, BCRP (BCRP-MDCKII monolayer) (Homo sapiens, UniProt Q9UNQ0).
T4 construct: host or cells: MDCKII (canine kidney) cells
T4 sequence (Q9UNQ0 1-655): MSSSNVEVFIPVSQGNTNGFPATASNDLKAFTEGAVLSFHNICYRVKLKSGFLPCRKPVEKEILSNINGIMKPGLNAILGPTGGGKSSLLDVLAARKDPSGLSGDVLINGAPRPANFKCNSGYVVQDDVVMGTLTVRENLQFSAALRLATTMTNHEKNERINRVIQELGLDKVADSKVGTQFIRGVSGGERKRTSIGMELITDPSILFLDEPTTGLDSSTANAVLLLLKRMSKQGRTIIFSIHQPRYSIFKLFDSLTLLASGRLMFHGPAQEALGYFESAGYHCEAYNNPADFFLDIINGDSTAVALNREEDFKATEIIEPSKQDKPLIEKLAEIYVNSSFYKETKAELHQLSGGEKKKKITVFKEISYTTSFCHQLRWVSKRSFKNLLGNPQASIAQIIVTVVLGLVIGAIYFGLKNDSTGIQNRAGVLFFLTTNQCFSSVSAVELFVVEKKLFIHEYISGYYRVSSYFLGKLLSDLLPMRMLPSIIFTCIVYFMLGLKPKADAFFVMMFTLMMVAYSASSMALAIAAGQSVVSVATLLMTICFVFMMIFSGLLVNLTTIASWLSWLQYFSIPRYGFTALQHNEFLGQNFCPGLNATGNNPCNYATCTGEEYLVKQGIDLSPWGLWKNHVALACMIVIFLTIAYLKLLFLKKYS
Nature of the data set: MDCKII-BCRP bidirectional transport assay. The class given is in vitro ADME. In short, it runs like this: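 Bidirectional A→B and B→A transport across PreadyPort BCRP-MDCKII monolayers (days 12–15) was run in duplicate for 120 min at 37° C, 5% CO2 after a 15 min preincubation. Compound levels were measured by LC-MS/MS. Papp and recovery were calculated, with efflux ratio indicating transporter engagement.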

Each structure is given as a SMILES string. Where only a bound is given, the exact number is not on record here.

T3 sequence (P16234 24-1089): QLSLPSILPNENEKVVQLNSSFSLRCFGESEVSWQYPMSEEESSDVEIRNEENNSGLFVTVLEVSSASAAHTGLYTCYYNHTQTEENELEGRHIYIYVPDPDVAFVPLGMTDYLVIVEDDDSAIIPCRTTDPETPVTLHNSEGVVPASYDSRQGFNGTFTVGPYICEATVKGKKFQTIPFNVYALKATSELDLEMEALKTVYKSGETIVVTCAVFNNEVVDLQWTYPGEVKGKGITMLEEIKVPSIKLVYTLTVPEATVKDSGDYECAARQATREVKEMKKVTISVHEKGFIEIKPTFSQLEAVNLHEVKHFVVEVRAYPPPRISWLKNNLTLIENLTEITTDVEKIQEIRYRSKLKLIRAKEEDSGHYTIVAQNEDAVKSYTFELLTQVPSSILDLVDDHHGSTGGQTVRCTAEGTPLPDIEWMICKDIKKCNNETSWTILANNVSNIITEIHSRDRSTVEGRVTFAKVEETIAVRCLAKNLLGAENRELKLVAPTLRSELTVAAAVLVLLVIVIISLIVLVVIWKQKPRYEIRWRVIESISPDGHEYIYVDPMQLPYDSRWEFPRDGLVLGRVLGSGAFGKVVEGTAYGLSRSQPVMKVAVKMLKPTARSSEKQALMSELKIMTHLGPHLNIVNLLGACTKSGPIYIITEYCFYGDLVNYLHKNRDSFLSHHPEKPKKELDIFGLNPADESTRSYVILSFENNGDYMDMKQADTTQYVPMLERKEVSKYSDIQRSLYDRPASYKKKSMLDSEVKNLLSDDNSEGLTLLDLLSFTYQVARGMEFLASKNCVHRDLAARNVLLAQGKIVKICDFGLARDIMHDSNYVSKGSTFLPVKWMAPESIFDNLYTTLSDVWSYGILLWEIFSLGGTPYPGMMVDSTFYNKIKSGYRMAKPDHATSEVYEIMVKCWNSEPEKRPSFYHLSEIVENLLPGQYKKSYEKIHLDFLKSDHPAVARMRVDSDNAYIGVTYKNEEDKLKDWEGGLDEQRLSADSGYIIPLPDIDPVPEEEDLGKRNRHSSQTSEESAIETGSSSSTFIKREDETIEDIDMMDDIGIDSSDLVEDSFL
T2 sequence (P10721 26-976): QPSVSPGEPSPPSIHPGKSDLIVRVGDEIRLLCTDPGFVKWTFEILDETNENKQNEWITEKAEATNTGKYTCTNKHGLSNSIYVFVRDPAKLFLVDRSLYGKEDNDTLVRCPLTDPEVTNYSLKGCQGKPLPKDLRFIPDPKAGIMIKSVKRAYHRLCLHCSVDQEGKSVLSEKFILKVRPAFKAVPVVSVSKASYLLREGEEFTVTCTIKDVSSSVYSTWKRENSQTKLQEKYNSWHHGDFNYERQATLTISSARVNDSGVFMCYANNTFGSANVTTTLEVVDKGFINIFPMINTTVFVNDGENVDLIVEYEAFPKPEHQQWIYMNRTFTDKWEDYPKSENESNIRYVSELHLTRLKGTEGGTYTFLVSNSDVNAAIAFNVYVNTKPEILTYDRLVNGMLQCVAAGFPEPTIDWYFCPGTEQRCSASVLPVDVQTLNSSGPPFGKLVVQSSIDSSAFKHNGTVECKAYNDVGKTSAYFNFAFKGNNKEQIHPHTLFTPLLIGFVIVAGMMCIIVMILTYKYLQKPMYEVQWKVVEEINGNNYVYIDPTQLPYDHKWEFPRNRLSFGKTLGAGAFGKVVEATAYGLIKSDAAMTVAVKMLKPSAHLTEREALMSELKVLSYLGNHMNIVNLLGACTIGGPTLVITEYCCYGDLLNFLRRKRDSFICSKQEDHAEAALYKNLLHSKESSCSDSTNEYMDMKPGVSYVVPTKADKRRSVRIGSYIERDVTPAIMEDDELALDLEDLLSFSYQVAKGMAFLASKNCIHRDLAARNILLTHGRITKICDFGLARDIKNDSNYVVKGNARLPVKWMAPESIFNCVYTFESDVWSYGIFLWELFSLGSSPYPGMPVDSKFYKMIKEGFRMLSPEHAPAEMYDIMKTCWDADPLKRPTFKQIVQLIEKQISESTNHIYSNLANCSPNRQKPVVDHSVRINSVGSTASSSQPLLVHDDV
T1 sequence (P07333 20-972): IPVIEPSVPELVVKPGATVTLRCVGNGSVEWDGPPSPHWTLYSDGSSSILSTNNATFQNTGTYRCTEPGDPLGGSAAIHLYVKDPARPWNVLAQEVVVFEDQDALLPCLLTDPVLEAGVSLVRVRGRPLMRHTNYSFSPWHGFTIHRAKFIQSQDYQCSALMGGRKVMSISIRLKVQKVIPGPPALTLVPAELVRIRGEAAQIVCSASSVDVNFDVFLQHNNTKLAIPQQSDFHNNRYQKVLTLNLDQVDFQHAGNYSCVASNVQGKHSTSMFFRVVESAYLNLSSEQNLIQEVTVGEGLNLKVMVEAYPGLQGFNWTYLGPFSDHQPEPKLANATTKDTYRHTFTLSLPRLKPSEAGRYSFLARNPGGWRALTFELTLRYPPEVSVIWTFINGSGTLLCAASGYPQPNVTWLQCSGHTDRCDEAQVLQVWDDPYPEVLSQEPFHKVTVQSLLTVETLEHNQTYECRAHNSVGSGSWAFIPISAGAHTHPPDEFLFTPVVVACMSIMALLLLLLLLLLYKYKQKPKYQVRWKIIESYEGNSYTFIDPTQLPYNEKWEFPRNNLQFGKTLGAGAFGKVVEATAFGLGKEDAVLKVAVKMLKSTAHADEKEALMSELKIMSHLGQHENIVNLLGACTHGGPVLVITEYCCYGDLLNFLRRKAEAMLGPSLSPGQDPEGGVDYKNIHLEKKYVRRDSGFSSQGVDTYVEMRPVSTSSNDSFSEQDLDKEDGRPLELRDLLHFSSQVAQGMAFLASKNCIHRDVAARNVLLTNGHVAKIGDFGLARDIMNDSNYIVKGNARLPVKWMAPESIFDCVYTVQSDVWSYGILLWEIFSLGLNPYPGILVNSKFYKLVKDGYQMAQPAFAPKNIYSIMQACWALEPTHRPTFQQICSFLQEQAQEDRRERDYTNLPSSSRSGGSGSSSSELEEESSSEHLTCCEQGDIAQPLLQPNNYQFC

Broadly, the IC50 is the concentration that inhibits the measured activity by half. Turning to `Cc1ccc(-c2noc([C@@H]3CCN3S(=O)(=O)c3cccnc3)n2)cc1NC(=O)c1cnc2ccccn12` [Compound I-185], the half-inhibitory concentration (IC50) was at most 50 nM in data set [1], at most 50 nM in data set [2], at most 50 nM in data set [4] and 50 to 500 nM in data set [5]. The “Solubility (μM)” value in data set [3] was “**** (a solubility less than or equal to 2 μM)”.

Take `COC(=O)N1CC(c2nc(-c3ccc(C#N)c(NC(=O)c4cnc5ccccn45)c3)no2)C1` [Compound I-212]: the half-inhibitory concentration (IC50) in data set [2], in data set [6] and in data set [4] was 50 to 500 nM in each case. In addition, the “Solubility (μM)” value in data set [3] was “*** (a solubility greater than 2 μM and less than or equal to 10 μM)”.

With `Cc1ccc(-c2noc(C3CC4(C3)CC(F)(F)C4)n2)cc1NC(=O)c1cnc2ccccn12` [Compound I-266], the IC50 is at most 50 nM in data set [1]; at most 50 nM in data set [2]; at most 50 nM in data set [6]; at most 50 nM in data set [4]; 50 to 500 nM in data set [5]. Besides, the “Solubility (μM)” value in data set [3] is “**** (a solubility less than or equal to 2 μM)”.

On to `Cc1ccc(-c2noc(C[C@@H](C)O)n2)cc1NC(=O)c1cnc2cc(C(F)F)ccn12` [Compound I-83], for which, in data set [3], the “Solubility (μM)” value was “**** (a solubility less than or equal to 2 μM)”. Also, the IC50 in data set [4] is at most 50 nM. Also, the “MDCK-BCRP: Efflux Ratio” value in data set [7] is reported as 25.3. Besides, the “MDCK-BCRP: Papp A-B” value in data set [7] (apical to basolateral) was 0.96 10^−6 cm/s.

Consider `O=C(Nc1cc(-c2noc([C@@H]3CC(F)(F)CN3)n2)ccc1Cl)c1cnc2ccccn12` [Compound I-221], for which the IC50 in data set [1] was 50 to 500 nM; in data set [2], at most 50 nM; in data set [6], 50 to 500 nM; in data set [4] it was 50 to 500 nM; in data set [5], 5000 to 30000 nM. For the same molecule, the “Solubility (μM)” value in data set [3] is on record as “**** (a solubility less than or equal to 2 μM)”.

`Cc1ccc(-c2noc([C@@H]3CC4(CC4)CN3)n2)cc1NC(=O)c1cnc2ccccn12` [Compound I-230]: the IC50 in data set [1] is at most 50 nM; in data set [2], at most 50 nM; in data set [6], at most 50 nM; in data set [4], at most 50 nM; in data set [5], 50 to 500 nM. Also, the “Solubility (μM)” value in data set [3] was “** (a solubility greater than 10 μM and less than or equal to 50 μM)”.

Turning to `Cc1nc(-c2ccc(C)c(NC(=O)c3cnn4ccccc34)c2)no1` [Compound I-428], the half-maximal inhibitory concentration (IC50) in data set [1] was 500 to 5000 nM; in data set [2], at most 50 nM; in data set [4], at most 50 nM; in data set [5], 500 to 5000 nM.

`CCCS(=O)(=O)N1CCC1c1nc(-c2ccc(C)c(NC(=O)c3cnc4ccccn34)c2)no1` (centres unmarked) [Compound I-242]: the IC50 in data set [2] is at most 50 nM; in data set [6], at most 50 nM; in data set [4], 50 to 500 nM. The “Solubility (μM)” value in data set [3] was “*** (a solubility greater than 2 μM and less than or equal to 10 μM)”.

With `Cc1ccc(-c2noc([C@@H]3CCN3S(=O)(=O)c3cn(C)cn3)n2)cc1NC(=O)c1cnc2ccccn12` [Compound I-184], the IC50 in data set [1] was 50 to 500 nM; in data set [2], at most 50 nM; in data set [4] it was 500 to 5000 nM; in data set [5], 500 to 5000 nM. Further, the “Solubility (μM)” value in data set [3] is given as “**** (a solubility less than or equal to 2 μM)”.

`COCc1ccn2c(C(=O)Nc3cc(-c4noc(C5CN(C(=O)OC)C5)n4)ccc3C)cnc2c1` [Compound I-140]: the IC50 in data set [1] was 50 to 500 nM; in data set [2] it was at most 50 nM; in data set [4] it was 50 to 500 nM; in data set [5], 5000 to 30000 nM. In data set [3], the “Solubility (μM)” value is “*** (a solubility greater than 2 μM and less than or equal to 10 μM)”.

With `COC(=O)N1CC(c2nc(-c3ccc(C)c(NC(=O)c4cnc5cc(OCC(C)(C)O)ccn45)c3)no2)C1` [Compound I-261], the IC50 was at most 50 nM in data set [1]; at most 50 nM in data set [2]; at most 50 nM in data set [6]; at most 50 nM in data set [4]; 50 to 500 nM in data set [5]. Moreover, in data set [3], the “Solubility (μM)” value is “** (a solubility greater than 10 μM and less than or equal to 50 μM)”.

As to `Cc1ccc(-c2noc(C[C@H](C)O)n2)cc1NC(=O)c1cnc2cc(C(F)F)ccn12` [Compound I-82], in data set [3], the “Solubility (μM)” value is “**** (a solubility less than or equal to 2 μM)”. Further, the IC50 in data set [4] was in the range of 50 to 500 nM.

On to `Cc1ccc(-c2noc(C3CC3(C)C)n2)cc1NC(=O)c1cnc2ccccn12` (centres unmarked) [Compound I-127], for which the IC50 is at most 50 nM in data set [1], at most 50 nM in data set [2], at most 50 nM in data set [4] and 50 to 500 nM in data set [5].

With `Cc1ccc(-c2noc(N3CCC(F)(F)CC3)n2)cc1NC(=O)c1cnc2ccccn12` [Compound I-214], the IC50 in data set [2] was at most 50 nM; in data set [6], 50 to 500 nM; in data set [4], 50 to 500 nM. For the same molecule, the “Solubility (μM)” value in data set [3] is “*** (a solubility greater than 2 μM and less than or equal to 10 μM)”.
